Measurements taken from the NIST ThermoML archive (doi:10.1016/j.jct.2018.01.021).

Experiment: mn = molality of the nth substance listed, in mol/kg
Details: 100 kPa, Liquid; for speed of sound: Frequency=3 MHz, Single path-length method; for mass density: Vibrating tube method

[Cl-].[Na+] [sodium chloride] + O
298.15 K
Details | mass density [kg/m3] | speed of sound [m/s]
m1 = 0.151 | 1003.43 | 1507.5
m1 = 1.021 | 1037.99 | 1560.5

O [water] + O=C[C@H](O)[C@@H](O)[C@H](O)[C@H](O)CO
Details | speed of sound [m/s]
298.15 K, m2 = 0 | 1497.7

O [water] + C[N+](C)(C)C[C@H](O)CC(=O)[O-]
m2 = 0
Details | speed of sound [m/s]
298.15 K | 1497.7
308.15 K | 1520.7

O [water] + [Cl-].[Na+]
Details | speed of sound [m/s]
298.15 K, m2 = 0 | 1497.7

C[N+](C)(C)C[C@H](O)CC(=O)[O-] [(R)-3-hydroxy-4-(trimethylammonio)butanoate] + O
Details | mass density [kg/m3] | speed of sound [m/s]
293.15 K, m1 = 0.0937 | 1001.09 | 1492.4
293.15 K, m1 = 0.1233 | 1001.98 | 1495.2
293.15 K, m1 = 0.1554 | 1002.94 | 1498.3
293.15 K, m1 = 0.1924 | 1004.04 | 1501.8
293.15 K, m1 = 0.2249 | 1004.99 | 1504.9
293.15 K, m1 = 0.2574 | 1005.94 | 1507.9
293.15 K, m1 = 0.276 | 1006.48 | 1509.7
293.15 K, m1 = 0.3064 | 1007.35 | 1512.5
298.15 K, m1 = 0.0497 | 998.57 | 1502.3
298.15 K, m1 = 0.0994 | 1000.06 | 1506.9
298.15 K, m1 = 0.1214 | 1000.71 | 1508.9
298.15 K, m1 = 0.1509 | 1001.58 | 1511.6
298.15 K, m1 = 0.2007 | 1003.03 | 1516.1
298.15 K, m1 = 0.2203 | 1003.6 | 1517.8
298.15 K, m1 = 0.2572 | 1004.66 | 1521.2
298.15 K, m1 = 0.3012 | 1005.91 | 1525.1
303.15 K, m1 = 0.0477 | 997.1 | 1514.3
303.15 K, m1 = 0.1029 | 998.75 | 1519.2
303.15 K, m1 = 0.1227 | 999.33 | 1521
303.15 K, m1 = 0.1531 | 1000.21 | 1523.6
303.15 K, m1 = 0.2046 | 1001.71 | 1528.1
303.15 K, m1 = 0.2174 | 1002.07 | 1529.2
303.15 K, m1 = 0.255 | 1003.14 | 1532.4
303.15 K, m1 = 0.3041 | 1004.51 | 1536.7
308.15 K, m1 = 0.0512 | 995.58 | 1525.2
308.15 K, m1 = 0.0938 | 996.84 | 1528.8
308.15 K, m1 = 0.1229 | 997.69 | 1531.2
308.15 K, m1 = 0.1447 | 998.32 | 1533.1
308.15 K, m1 = 0.1952 | 999.78 | 1537.3
308.15 K, m1 = 0.2238 | 1000.59 | 1539.7
308.15 K, m1 = 0.2282 | 1000.71 | 1540.1
308.15 K, m1 = 0.304 | 1002.84 | 1546.4
313.15 K, m1 = 0.0519 | 993.75 | 1534.1
313.15 K, m1 = 0.1012 | 995.21 | 1538.2
313.15 K, m1 = 0.1204 | 995.77 | 1539.7
313.15 K, m1 = 0.1428 | 996.42 | 1541.5
313.15 K, m1 = 0.1922 | 997.84 | 1545.5
313.15 K, m1 = 0.2107 | 998.36 | 1547
313.15 K, m1 = 0.2436 | 999.29 | 1549.7
313.15 K, m1 = 0.3053 | 1001 | 1554.7

C[N+](C)(C)[O-] [trimethylamine oxide] + O
m1 = 1.08
Details | mass density [kg/m3] | speed of sound [m/s]
293.15 K | 1000.9 | 1564.8
298.15 K | 999.7 | 1575.7
303.15 K | 998.26 | 1584.2
308.15 K | 996.53 | 1589.4
313.15 K | 994.81 | 1595.5

O [water] + C[N+](C)(C)[O-]
m2 = 0
Details | speed of sound [m/s]
298.15 K | 1497.7
308.15 K | 1520.7

O=C[C@H](O)[C@@H](O)[C@H](O)[C@H](O)CO [D-glucose] + O
298.15 K
Details | mass density [kg/m3] | speed of sound [m/s]
m1 = 0.153 | – | 1507.3
m1 = 1.13 | 1064.98 | 1565.3
